The source of these data is patent publication US10898481B2 (priority 2018, dated 2021).

Where two headings read alike, the source gives them in different places.

The target in assay [1] is hADORA1/CHO (hA1 expressing) cells (Homo sapiens (Human), UniProt P30542). Nature of the assay: cell-based. The settings on record: 10 μM adenosine.
For a further assay, the target named is hA1 (Homo sapiens (Human), UniProt P30542). Particulars: hA1 membrane, [3H]-DPCPX; read-out: Binding Affinity (IC50 nM) hA1. The source says: (§1) The empty boxes in the tables below indicate data not collected yet.
For another assay, the target named is hA2a (Homo sapiens (Human), UniProt P29274). In words: Radioligand binding to hA2a membrane with [3H]-CGS21680. The settings on record: read-out: Binding Affinity (IC50 nM) hA2a.
Source text: as §1

In the next assay the target is hA2b/CHO (Homo sapiens (Human), UniProt P29275). Nature of the assay: cAMP inhibition assay in hA2b/CHO cells, 10 μM adenosine.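 Also: cells exposed to compound 30 min at 37 °C, then stimulated with adenosine a further 30 min, cAMP read after 60 min at room temperature.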 In kind it is cell-based. Particulars: read-out: cAMP & FLIPR IC50 (nM) hA2b.
Another assay has as its target hA2a/CHO (Homo sapiens (Human), UniProt P29274). Nature of the assay: cAMP inhibition assay in hA2a/CHO cells, 10 μM adenosine.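 Also: compounds added to cells 30 min ahead of adenosine, then a further 30 min at 37 °C with adenosine before cAMP detection.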 Particulars: read-out: cAMP & FLIPR IC50 (nM) hA2a. It is filed as cell-based.
For another assay, the target named is mA2a/CHO (Mus musculus (Mouse), UniProt Q60613). In words: cAMP inhibition assay in mA2a/CHO cells, 10 μM adenosine.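 Also: compounds preincubated 30 min at 37 °C before the adenosine challenge, then 30 min further stimulation, readout after 60 min detection reagent incubation at room temperature in 384-well plates.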 It is filed as cell-based. The settings on record: read-out: cAMP & FLIPR IC50 (nM) mA2a.
For another assay, the target named is hA2b (Homo sapiens (Human), UniProt P29275). Nature of the assay: Radioligand binding to hA2b membrane with [3H]-DPCPX. The settings on record: read-out: Binding Affinity (IC50 nM) hA2b.
Source text: as §1

The target in a further assay is hA3/CHO (Homo sapiens (Human), UniProt P0DMS8). Nature of the assay: cell-based. The method, then:
hA2a/CHO, hA2b/CHO, hA3/CHO and mA2a/CHO (Genscript) were plated at 5×10^3 cells/well into 384-well polystyrene plates at the day of experiment. Compounds were pre-incubated with cells for 30 min at 37° C., 5% CO2. Then 10 μM adenosine was added to the cells and incubated for 30 min at 37° C., 5% CO2. Detection reagent (CISBIO) was added and the plates were incubated for 60 min at room temperature. The signal was captured by Envision.

[2] abbreviates: FLIPR inhibition, read-out: cAMP & FLIPR IC50 (nM) hA1.
[3] abbreviates: cAMP & FLIPR IC50 (nM) hA1, FLIPR inhibition.

mA2a/CHO, sequence (Q60613 whole entry): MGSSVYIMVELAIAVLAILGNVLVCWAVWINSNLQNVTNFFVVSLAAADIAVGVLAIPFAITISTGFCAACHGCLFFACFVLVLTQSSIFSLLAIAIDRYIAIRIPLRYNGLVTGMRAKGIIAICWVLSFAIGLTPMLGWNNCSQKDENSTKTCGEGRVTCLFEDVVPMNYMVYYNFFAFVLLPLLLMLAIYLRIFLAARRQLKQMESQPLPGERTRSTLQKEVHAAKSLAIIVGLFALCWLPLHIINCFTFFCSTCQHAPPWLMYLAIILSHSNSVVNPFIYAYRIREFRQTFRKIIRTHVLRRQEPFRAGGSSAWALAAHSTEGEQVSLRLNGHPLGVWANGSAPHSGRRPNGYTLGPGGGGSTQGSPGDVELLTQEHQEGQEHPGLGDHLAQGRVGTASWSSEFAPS
hADORA1/CHO (hA1 expressing) cells, sequence (P30542 whole entry): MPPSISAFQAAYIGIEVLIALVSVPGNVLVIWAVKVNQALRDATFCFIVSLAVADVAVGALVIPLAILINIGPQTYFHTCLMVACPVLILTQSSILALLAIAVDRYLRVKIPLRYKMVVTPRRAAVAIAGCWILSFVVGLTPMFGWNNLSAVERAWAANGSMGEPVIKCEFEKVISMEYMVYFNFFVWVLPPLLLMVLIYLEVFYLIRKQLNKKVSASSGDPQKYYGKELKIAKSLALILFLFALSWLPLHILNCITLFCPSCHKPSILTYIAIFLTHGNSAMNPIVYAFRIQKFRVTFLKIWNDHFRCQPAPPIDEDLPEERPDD
hA1, sequence (P30542 whole entry): as above
hA2a/CHO, sequence (P29274 whole entry): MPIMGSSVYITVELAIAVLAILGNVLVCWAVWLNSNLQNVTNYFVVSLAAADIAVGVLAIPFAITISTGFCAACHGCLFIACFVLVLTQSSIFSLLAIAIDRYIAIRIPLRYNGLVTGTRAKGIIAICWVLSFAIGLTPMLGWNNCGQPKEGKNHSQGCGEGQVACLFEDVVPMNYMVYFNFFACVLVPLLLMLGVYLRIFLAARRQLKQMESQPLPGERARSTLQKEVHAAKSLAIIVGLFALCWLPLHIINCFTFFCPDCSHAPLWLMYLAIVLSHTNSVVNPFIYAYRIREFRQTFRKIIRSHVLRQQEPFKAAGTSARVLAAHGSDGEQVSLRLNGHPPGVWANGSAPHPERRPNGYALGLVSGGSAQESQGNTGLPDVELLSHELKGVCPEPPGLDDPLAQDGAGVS
hA2a, sequence (P29274 whole entry): as above
hA2b/CHO, sequence (P29275 whole entry): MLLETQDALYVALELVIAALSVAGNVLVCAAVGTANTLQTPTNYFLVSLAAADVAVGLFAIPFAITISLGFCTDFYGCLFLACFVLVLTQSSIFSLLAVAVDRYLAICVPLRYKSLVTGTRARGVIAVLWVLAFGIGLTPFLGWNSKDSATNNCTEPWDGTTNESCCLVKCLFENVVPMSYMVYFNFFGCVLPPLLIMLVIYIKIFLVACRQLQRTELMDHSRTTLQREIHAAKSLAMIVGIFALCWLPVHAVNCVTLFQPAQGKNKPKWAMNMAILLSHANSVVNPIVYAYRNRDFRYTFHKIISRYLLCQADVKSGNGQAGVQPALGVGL
hA2b, sequence (P29275 whole entry): as above
hA3/CHO, sequence (P0DMS8 whole entry): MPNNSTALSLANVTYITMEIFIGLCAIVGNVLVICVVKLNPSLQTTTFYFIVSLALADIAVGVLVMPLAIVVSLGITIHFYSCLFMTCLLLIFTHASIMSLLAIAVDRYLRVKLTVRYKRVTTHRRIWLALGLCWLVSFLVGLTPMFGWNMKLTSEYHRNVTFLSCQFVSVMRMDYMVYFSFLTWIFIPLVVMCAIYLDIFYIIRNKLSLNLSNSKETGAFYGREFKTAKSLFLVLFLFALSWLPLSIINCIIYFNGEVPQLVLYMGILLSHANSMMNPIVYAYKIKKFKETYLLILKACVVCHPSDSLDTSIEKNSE

Usually IC50 stands for the point on the concentration scale where inhibition reaches its midpoint. `CN(C)c1cccnc1CNC(=O)c1nc(-c2ccc(=O)n(C)c2)c(-c2ncco2)nc1N` [Example 16, 3-amino-N-((3-(dimethylamino)pyridin-2-yl)methyl)-6-(1-methyl-6-oxo-1,6-dihydropyridin-3-yl)-5-(oxazol-2-yl)pyrazine-2-carboxamide]: the 50% inhibitory concentration (IC50) in assay [1] (setting [2]) was 32 nM; on hA1 it was 15 nM; on hA2a, 3.9 nM; on hA2b/CHO it was 336 nM; at hA2a/CHO, 5.3 nM; at mA2a/CHO, 8.3 nM.

For the compound `Cn1cc(-c2nc(C(=O)NC(CO)c3c(F)cccc3F)c(N)nc2-c2ncco2)ccc1=O` (stereo not drawn) [Example 98, 3-amino-N-(1-(2,6-difluorophenyl)-2-hydroxyethyl)-6-(1-methyl-6-oxo-1,6-dihydropyridin-3-yl)-5-(oxazol-2-yl) pyrazine-2-carboxamide], the 50% inhibitory concentration (IC50) in assay [1] (setting [3]) was 70 nM; at hA1 it was 10 nM; at hA2a it was 9.3 nM; at hA2b/CHO it was 126 nM; at hA2a/CHO, 21 nM; on mA2a/CHO, 64 nM.

Take `Nc1nc(-c2ncco2)c(-c2ccc3ncnn3c2)nc1C(=O)NCc1ncccc1F` [Example 100, 6-([1,2,4]triazolo[1,5-a]pyridin-6-yl)-3-amino-N-((3-fluoropyridin-2-yl)methyl)-5-(oxazol-2-yl)pyrazine-2-carboxamide]: the half-inhibitory concentration (IC50) in assay [1] (setting [3]) was determined as 10000 nM; on hA1, 685 nM; on hA2a it was 8.4 nM; at hA2b/CHO, 312 nM; on hA2a/CHO it was 76 nM; at mA2a/CHO, 4530 nM.

Take `Cn1cnc2ccc(-c3nc(C(=O)NCc4ncccc4F)c(N)nc3-c3ncco3)cc21` [Example 51, 3-amino-N-((3-fluoropyridin-2-yl)methyl)-6-(3-methyl-3H-benzo[d]imidazol-5-yl)-5-(oxazol-2-yl)pyrazine-2-carboxamide]: the half-maximal inhibitory concentration (IC50) was 2500 nM in assay [1] (setting [2]); 78 nM at hA1; 2.1 nM on hA2a; 5.5 nM on hA2b/CHO; 1.2 nM on hA2a/CHO; 9.6 nM on mA2a/CHO.

In the case of `COCCNC(=O)c1nc(-c2ccc3ncc(C)n3c2)c(-c2ncco2)nc1N` [Example 147, 3-amino-N-(2-methoxyethyl)-6-(3-methylimidazo[1,2-a]pyridin-6-yl)-5-(oxazol-2-yl)pyrazine-2-carboxamide], the concentration for half-maximal inhibition (IC50) in assay [1] (setting [2]) was determined as 2380 nM; at hA1, 108 nM; on hA2a, 5.6 nM; on hA2b/CHO, 134 nM; on hA2a/CHO, 3.8 nM; at mA2a/CHO, 15 nM.

On to `Cn1cc(-c2nc(C(=O)NCc3c(F)cccc3F)c(N)nc2-c2ncco2)ccc1=O` [Example 3, 3-amino-N-(2,6-difluorobenzyl)-6-(1-methyl-6-oxo-1,6-dihydropyridin-3-yl)-5-(oxazol-2-yl)pyrazine-2-carboxamide], for which the IC50 in assay [1] (setting [2]) is 159 nM; at hA1, 16 nM; on hA2b it was 1.4 nM; on hA2a it was 1.9 nM; on hA3/CHO it was at least 10000 nM; on hA2b/CHO it was 53 nM. Further, the concentration for half-maximal inhibition (IC50) on hA2a/CHO is 4.5 nM; at mA2a/CHO it was 5.8 nM.

Take `Cc1cnc2ccc(-c3nc(C(=O)NC(C)C)c(N)nc3-c3ncco3)cn12` [Example 133, 3-amino-N-isopropyl-6-(3-methyl-imidazo[1,2-a]pyridin-6-yl)-5-(oxazol-2-yl)pyrazine-2-carboxamide]: the half-inhibitory concentration (IC50) in assay [1] (setting [3]) was determined as 10000 nM; on hA1 it was 271 nM; at hA2a it was 2.7 nM; at hA2b/CHO it was 554 nM; on hA2a/CHO, 5.9 nM; at mA2a/CHO, 19 nM.

On to `Cc1cnc2ccc(-c3nc(C(=O)NC4CCC4)c(N)nc3-c3ncco3)cn12` [Example 218, 3-amino-N-cyclobutyl-6-(3-methylimidazo[1,2-a]pyridin-6-yl)-5-(oxazol-2-yl)pyrazine-2-carboxamide], for which the IC50 in assay [1] (setting [2]) was over 10000 nM; at hA1, 475 nM; at hA2a, 9.1 nM; on hA2b/CHO, 359 nM; on hA2a/CHO it was 1.5 nM; at mA2a/CHO, 28 nM.

For the compound `Cc1cnc2ccc(-c3nc(C(=O)NC[C@H]4CCCO4)c(N)nc3-c3ncco3)cn12` [Example 126, (R)-3-amino-6-(3-methylimidazo[1,2-a]pyridin-6-yl)-5-(oxazol-2-yl)-N-((tetrahydrofuran-2-yl)methyl)pyrazine-2-carboxamide], the IC50 in assay [1] (setting [3]) was 1230 nM; at hA1 it was 78 nM; on hA2a, 1.4 nM; at hA2b/CHO, 77 nM; at hA2a/CHO, 1.6 nM; at mA2a/CHO it was 7 nM.

For `Nc1nc(-c2ncco2)c(-c2ccc3nccn3c2)nc1C(=O)NCc1ncccc1F` [Example 43, 3-amino-N-((3-fluoropyridin-2-yl)methyl)-6-(imidazo[1,2-a]pyridin-6-yl)-5-(oxazol-2-yl)pyrazine-2-carboxamide], the half-inhibitory concentration (IC50) in assay [1] (setting [3]) stood at 10000 nM; at hA1, 245 nM; at hA2a, 21 nM; at hA2b/CHO, 159 nM; at hA2a/CHO it was 49 nM; at mA2a/CHO, 240 nM.

With `Cc1cnc2ccc(-c3nc(C(=O)NC[C@H]4CCOC4)c(N)nc3-c3ncco3)cn12` [Example 136, (R)-3-amino-6-(3-methylimidazo[1,2-a]pyridin-6-yl)-5-(oxazol-2-yl)-N-((tetrahydrofuran-3-yl)methyl)pyrazine-2-carboxamide], the IC50 was 10000 nM in assay [1] (setting [3]); 182 nM at hA1; 1.7 nM at hA2a; 512 nM on hA2b/CHO; 1.8 nM at hA2a/CHO; 27 nM on mA2a/CHO.

Take `COC[C@H](C)NC(=O)c1nc(-c2ccc3ncc(C)n3c2)c(-c2ncco2)nc1N` [Example 160, (S)-3-amino-N-(1-methoxypropan-2-yl)-6-(3-methylimidazo[1,2-a]pyridin-6-yl)-5-(oxazol-2-yl)pyrazine-2-carboxamide]: the half-inhibitory concentration (IC50) is 4860 nM in assay [1] (setting [2]); 333 nM on hA1; 3.15 nM at hA2a; 163 nM at hA2b/CHO; 0.26 nM at hA2a/CHO; 0.89 nM on mA2a/CHO.

As for `Cc1cnc2ccc(-c3nc(C(=O)NC[C@@H]4CCOC4)c(N)nc3-c3ncco3)cn12` [Example 137, (S)-3-amino-6-(3-methylimidazo[1,2-a]pyridin-6-yl)-5-(oxazol-2-yl)-N-((tetrahydrofuran-3-yl)methyl)pyrazine-2-carboxamide], the IC50 was 10000 nM in assay [1] (setting [3]); 195 nM at hA1; 3.9 nM on hA2a; 464 nM at hA2b/CHO; 1.7 nM on hA2a/CHO; 34 nM on mA2a/CHO.

Take `Cc1cnc2ccc(-c3nc(C(=O)NC[C@@H]4CCCO4)c(N)nc3-c3ncco3)cn12` [Example 127, (S)-3-amino-6-(3-methylimidazo[1,2-a]pyridin-6-yl)-5-(oxazol-2-yl)-N-((tetrahydrofuran-2-yl)methyl)pyrazine-2-carboxamide]: the IC50 in assay [1] (setting [3]) was found to be 2420 nM; on hA1, 68 nM; at hA2a, 3.1 nM; on hA2b/CHO it was 99 nM; on hA2a/CHO it was 1.7 nM; at mA2a/CHO, 14 nM.

For the compound `Nc1cccc(CNC(=O)c2nc(-c3ccc4nccn4c3)c(-c3ncco3)nc2N)n1` [Example 48, 3-amino-N-[(6-aminopyridin-2-yl)methyl]-6-[imidazo[1,2-a]pyridin-6-yl]-5-(1,3-oxazol-2-yl) pyrazine-2-carboxamide], the IC50 in assay [1] (setting [2]) was 7160 nM; at hA1, 67 nM; at hA2a, 3.1 nM; at hA2b/CHO it was 84 nM; on hA2a/CHO, 19 nM; at mA2a/CHO, 256 nM.

Consider `CNc1cccc(CNC(=O)c2nc(-c3ccc(=O)n(C)c3)c(-c3ncco3)nc2N)n1` [Example 23, 3-amino-6-(1-methyl-6-oxo-1,6-dihydropyridin-3-yl)-N-[[6-(methylamino)pyridin-2-yl]methyl]-5-(1,3-oxazol-2-yl)pyrazine-2-carboxamide], for which the half-maximal inhibitory concentration (IC50) is 281 nM in assay [1] (setting [2]); 2.9 nM at hA2b; 3.5 nM on hA2a; at least 10000 nM on hA3/CHO; 880 nM on hA2b/CHO; 25 nM at hA2a/CHO. Besides, the half-inhibitory concentration (IC50) on mA2a/CHO worked out at 64 nM.
